Experiments:
[1] = test system: phospho-ERK; experiment: stimulation of phospho-ERK in FGF2-starved hiPSC by media stored at 37° C. (Western blot); format: cell-based, human; conditions: FIG. 7E
Description: FIG. 7A-E. Qualification of B8 as Suitable for hiPSC Generation and Culture. […] (B) Expression of pluripotent markers in a variety of B8-derived hiPSC lines. (C) Example G-banding karyotype analysis of four hiPSC lines derived in B8 from blood. (D) hiPSC growth at low seeding densities in B8 compared to E8 (n=8). (E) Assessment of stimulation of phospho-ERK after media had been stored at 37° C. for 2 or 7 days, comparing in-house generated FGF2-G3 to a commercial FGF2 (Peprotech). hiPSC were starved of FGF2 for 24 h then treated with the indicated media for 1 h before collection for Western blot. Total ERK was used as a loading control.
Stock lysis buffer was prepared as 150 mM NaCl, 20 mM Tris pH 7.5, 1 mM EDTA, 1 mM EGTA, and 1% Triton X-100 and stored at 4° C. Fresh complete lysis buffer was prepared with final concentration of 1× Protease Inhibitor (Roche, 5892791001), 1× Phosphatase Inhibitor Cocktail 2 (P5726, Sigma), 1× Phosphatase Inhibitor Cocktail 3 (Sigma, P0044), 2 mM PMSF (Sigma, P7626), and 1% SDS Solution (Fisher Scientific, BP2436200). hiPSC were starved using B8 without FGF2 for 24 hours, then treated with media containing the corresponding FGF2 for 1 h. Media was then removed, and cells were washed once with DPBS, harvested with 0.5 mM EDTA in DPBS, and transferred into tubes. Samples were pelleted by centrifugation at 500×g for 3 minutes and the supernatant was discarded. The pellet was resuspend in 150 μl complete lysis buffer and incubated on ice for 30 min. Clear lysates were collected by centrifugation at 10,000×g for 10 min at 4° C. The protein concentration was measured with Qubit Protein Assay Kit (Invitrogen, Q33211) and Qubit 4 fluorometer. Lysates was stored in −80° C. before use. 10 μg of sample was prepared with NuPAGE™ LDS Sample Buffer (Invitrogen, B0007) and NuPAGE™ Reducing Agent (Invitrogen, B0009) according to the manufacturer's instructions and run on NuPAGE™ 10% Bis-Tris Gel (Invitrogen, NP0302BOX) and Mini Gel Tank system (Invitrogen, A25977) with Bolt MES SDS Running Buffer (Invitrogen, B000202) at 100 V for 1 h. […]

[2] = test system: hiPSC; experiment: weekend-free media change / passaging schedule growth; format: cell-based, human; conditions: various doses, FIG. 8E
Description: FIG. 8A-H. Optimization of Weekend-Free Passaging Schedule that is Still Compatible with Monolayer Differentiation. (A) Establishment of an optimal 4-day media change schedule. (B) 7 day passage with media change schedule. (C) 7 day passage only schedule. (D) Comparison of growth when using two 7-day weekend-free passaging schedules with or without addition of 0.5 mg ml−1 albumin (n=2). (E) Comparison the addition of varying levels of albumin (mg ml−1) to a 7-day passage and media change schedule (n=4). (F) Cardiac differentiation efficiency when using 7-day passage and media change schedule (n=5). (G) Endothelial differentiation efficiency when using 7-day passage and media change schedule (n=6). (H) […]
With the understanding that B8 supports hiPSC growth across a variety of sub-optimal conditions (FIG. 7D), we established the suitability of this formula to skip days of media change. […] With the knowledge of the influence of various media change-skipping timelines, we devised a 7-day schedule consisting of passaging cells every 3.5 days that would allow for the skipping of media changes on the weekends, a major caveat of current hiPSC culture protocols (FIGS. 8B and 8C). […]

- effect of component on stability of FGF2-G3 [1]: improved the stability of FGF2-G3
Substance: heparin
- additive effect in B8 [2]: do not have an additive effect

From US20210087525A1, “COST EFFECTIVE CULTURE MEDIA AND PROTOCOL FOR HUMAN INDUCED PLURIPOTENT STEM CELLS” (NORTHWESTERN UNIVERSITY, priority 2019, published 2021)
